Columns and labels:
CYP2C19 [1] = biological target: T1, CYP2C19 (Homo sapiens, UniProt P33261); conditions: microsomes, 10 µM
CYP2D6 [2] = biological target: T2, CYP2D6 (Homo sapiens, UniProt P10635); assay: in vitro; conditions: microsomes
CYP2C19 [3] = biological target: T1, CYP2C19; assay: in vitro; conditions: microsomes
CYP2C9 [4] = biological target: T3, CYP2C9 (Homo sapiens, UniProt P11712); assay: in vitro; conditions: microsomes
hMDRI-MDCKII cells = assay: MDCK-MDR1 membrane permeability and efflux; type: in vitro ADME
CYP2C8 [5] = biological target: T4, CYP2C8 (Homo sapiens, UniProt P10632); assay: in vitro; conditions: microsomes
T4 sequence (P10632 1-490): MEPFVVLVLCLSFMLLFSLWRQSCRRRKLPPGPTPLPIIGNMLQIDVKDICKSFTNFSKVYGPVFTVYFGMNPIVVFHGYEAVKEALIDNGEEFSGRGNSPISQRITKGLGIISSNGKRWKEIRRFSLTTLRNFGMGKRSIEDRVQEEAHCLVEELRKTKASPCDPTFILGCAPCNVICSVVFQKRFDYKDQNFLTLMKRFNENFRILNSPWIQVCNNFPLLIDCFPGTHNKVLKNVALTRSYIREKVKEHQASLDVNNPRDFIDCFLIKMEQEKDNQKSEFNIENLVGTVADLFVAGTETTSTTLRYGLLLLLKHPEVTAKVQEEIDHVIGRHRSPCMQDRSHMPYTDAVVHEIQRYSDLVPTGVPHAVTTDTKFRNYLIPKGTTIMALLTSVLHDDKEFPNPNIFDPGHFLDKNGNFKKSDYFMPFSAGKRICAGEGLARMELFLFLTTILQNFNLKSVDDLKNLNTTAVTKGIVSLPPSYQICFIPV

CYP2B6 [6] = biological target: T5, CYP2B6 (Homo sapiens, UniProt P20813); conditions: microsomes, 10 µM
T5 sequence (P20813 1-491): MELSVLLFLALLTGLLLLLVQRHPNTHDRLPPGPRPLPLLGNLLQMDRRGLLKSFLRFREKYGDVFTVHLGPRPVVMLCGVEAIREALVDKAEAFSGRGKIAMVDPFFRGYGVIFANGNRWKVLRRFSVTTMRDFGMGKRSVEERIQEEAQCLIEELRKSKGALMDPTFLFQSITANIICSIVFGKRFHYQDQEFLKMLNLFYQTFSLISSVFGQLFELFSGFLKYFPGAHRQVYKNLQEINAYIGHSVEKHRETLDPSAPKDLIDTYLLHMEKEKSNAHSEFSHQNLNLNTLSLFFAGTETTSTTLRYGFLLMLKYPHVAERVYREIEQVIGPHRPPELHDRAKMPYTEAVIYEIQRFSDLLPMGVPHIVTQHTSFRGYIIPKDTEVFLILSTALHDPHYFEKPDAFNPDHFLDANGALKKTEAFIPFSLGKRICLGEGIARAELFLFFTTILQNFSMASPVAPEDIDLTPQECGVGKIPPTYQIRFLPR

CYP1A2 = biological target: T6, CYP1A2 (Homo sapiens, UniProt P05177); assay: Human liver microsomes P450 inhibition, CYP1A2
T6 sequence (P05177 1-516): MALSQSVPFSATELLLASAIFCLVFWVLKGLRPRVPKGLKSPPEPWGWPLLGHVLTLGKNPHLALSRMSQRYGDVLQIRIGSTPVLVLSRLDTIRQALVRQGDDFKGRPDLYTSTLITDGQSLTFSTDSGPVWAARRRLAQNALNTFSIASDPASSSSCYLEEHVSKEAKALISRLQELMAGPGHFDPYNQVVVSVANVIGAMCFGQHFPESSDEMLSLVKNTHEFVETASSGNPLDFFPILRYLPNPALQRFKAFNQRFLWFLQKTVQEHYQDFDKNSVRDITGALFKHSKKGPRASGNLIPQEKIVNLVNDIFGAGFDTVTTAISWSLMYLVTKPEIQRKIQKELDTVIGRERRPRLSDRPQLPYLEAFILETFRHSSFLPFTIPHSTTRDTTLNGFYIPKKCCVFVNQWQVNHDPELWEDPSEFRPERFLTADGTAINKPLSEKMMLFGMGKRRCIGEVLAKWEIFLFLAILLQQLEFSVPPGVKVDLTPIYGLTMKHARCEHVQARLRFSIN

CYP3A4 [7] = biological target: T7, CYP3A4 (Homo sapiens, UniProt P08684); assay: in vitro; conditions: microsomes
CYP2D6 [8] = biological target: T2, CYP2D6; conditions: microsomes, 10 µM
CYP2C8 [9] = biological target: T4, CYP2C8; conditions: microsomes, 10 µM
5-HT3 = biological target: T8, 5-HT3 (Homo sapiens, UniProt P46098); assay: NIMH PDSP radioligand binding displacement, 5-HT3; conditions: radioligand [^3H]-LY278584
T8 sequence (P46098 24-478): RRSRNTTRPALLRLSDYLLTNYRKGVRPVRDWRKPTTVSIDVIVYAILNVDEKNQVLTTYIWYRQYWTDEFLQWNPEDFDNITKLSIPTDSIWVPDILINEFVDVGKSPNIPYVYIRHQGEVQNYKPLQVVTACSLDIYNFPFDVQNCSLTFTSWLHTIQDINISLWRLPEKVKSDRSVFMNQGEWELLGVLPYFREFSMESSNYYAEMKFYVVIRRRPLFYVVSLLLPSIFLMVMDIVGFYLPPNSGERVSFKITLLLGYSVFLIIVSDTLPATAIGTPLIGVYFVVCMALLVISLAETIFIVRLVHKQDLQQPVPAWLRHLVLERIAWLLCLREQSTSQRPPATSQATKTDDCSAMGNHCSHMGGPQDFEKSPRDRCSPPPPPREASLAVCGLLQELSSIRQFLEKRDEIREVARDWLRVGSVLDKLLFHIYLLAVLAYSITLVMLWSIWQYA
From the text: . To explore the off-target profile of the two compounds, the National Institute of Mental Health (NIMH) Psychoactive Drug Screening Program (PDSP) were utilized to assess in a broad-panel of GPCRs and monoamine transporters (Table 4). […]. [table]

CYP2B6 [10] = biological target: T5, CYP2B6; assay: in vitro; conditions: microsomes
[11] = Rat liver microsomal intrinsic clearance; type: in vitro ADME; conditions: rat liver microsomes
CYP3A4 [12] = biological target: T7, CYP3A4; conditions: microsomes, 10 µM
CYP2C9 [13] = biological target: T3, CYP2C9; conditions: microsomes, 10 µM

T7 sequence (P08684 whole entry): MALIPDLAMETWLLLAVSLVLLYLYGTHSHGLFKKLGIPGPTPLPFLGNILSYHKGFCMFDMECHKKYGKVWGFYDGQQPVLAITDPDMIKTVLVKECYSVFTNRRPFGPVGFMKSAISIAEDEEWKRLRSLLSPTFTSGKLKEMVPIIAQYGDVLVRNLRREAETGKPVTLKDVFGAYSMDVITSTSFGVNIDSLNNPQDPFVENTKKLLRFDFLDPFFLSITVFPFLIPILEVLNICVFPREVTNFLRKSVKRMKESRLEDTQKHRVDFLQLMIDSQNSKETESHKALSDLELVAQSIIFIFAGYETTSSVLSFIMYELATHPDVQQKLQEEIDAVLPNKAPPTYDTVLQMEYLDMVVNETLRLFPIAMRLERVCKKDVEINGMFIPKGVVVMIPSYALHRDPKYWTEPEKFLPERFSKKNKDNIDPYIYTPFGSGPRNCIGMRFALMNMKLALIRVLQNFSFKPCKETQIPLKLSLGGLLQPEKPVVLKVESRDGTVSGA
T1 sequence (P33261 whole entry): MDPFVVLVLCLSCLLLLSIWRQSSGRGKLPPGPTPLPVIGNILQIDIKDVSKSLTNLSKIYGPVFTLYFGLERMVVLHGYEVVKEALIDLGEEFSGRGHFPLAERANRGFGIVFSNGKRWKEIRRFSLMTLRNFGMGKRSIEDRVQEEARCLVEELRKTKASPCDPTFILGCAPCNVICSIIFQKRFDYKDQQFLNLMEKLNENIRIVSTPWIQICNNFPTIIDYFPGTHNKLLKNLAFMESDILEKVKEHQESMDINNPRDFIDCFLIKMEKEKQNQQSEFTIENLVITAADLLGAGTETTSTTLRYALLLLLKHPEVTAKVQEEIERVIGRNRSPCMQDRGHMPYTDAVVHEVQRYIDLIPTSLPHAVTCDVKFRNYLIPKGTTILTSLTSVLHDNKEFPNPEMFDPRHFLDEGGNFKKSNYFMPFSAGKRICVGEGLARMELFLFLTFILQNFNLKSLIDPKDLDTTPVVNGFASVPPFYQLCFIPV
T3 sequence (P11712 whole entry): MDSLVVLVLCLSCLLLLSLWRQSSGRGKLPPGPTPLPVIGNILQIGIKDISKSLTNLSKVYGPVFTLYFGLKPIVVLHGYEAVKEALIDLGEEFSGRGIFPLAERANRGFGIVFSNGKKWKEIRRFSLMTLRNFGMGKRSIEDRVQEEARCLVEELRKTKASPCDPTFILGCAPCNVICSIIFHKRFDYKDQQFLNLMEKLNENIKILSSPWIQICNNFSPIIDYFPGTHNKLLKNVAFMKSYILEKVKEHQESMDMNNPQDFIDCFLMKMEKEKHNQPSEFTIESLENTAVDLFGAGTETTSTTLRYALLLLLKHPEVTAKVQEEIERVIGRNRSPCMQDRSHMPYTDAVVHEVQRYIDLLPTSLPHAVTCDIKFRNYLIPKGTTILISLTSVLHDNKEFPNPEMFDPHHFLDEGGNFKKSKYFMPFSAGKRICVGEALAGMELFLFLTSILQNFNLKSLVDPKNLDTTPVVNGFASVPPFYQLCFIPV
T2 sequence (P10635 whole entry): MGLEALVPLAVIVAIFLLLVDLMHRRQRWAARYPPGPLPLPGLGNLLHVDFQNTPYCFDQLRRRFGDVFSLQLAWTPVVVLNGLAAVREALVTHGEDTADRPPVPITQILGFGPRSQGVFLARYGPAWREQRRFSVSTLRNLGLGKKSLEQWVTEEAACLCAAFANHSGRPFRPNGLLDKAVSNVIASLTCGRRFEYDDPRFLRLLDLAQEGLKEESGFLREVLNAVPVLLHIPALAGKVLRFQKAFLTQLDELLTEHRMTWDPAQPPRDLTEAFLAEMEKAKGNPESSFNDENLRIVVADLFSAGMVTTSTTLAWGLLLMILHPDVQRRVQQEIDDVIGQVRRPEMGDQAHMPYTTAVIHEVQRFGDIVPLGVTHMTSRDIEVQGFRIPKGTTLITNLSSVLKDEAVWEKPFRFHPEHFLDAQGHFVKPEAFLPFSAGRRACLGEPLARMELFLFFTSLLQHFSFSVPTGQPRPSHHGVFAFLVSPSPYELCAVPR

Inhibitory % CYP2C19 (CYP2C19 [1]): 18.34%
inhibition at 10 µM (CYP2D6 [2]): < 20%
inhibition at 10 µM (CYP2C19 [3]): < 20%
inhibition at 10 µM (CYP2C9 [4]): < 20%
PappB→A (hMDRI-MDCKII cells; With Pgp inhibitor): PappB→A = 4.77 × 10^−6 cm/s
PappB→A (hMDRI-MDCKII cells; Without Pgp inhibitor): PappB→A = 3.23 × 10^−6 cm/s
inhibition at 10 µM (CYP2C8 [5]): < 20%
Inhibitory % CYP2B6 (CYP2B6 [6]): 53.31%
Inhibitory % CYP1A2 (CYP1A2; 10 μM, human liver microsomes): 3.4%
inhibition at 10 µM (CYP1A2; human, microsomes): < 20%
inhibition at 10 µM (CYP3A4 [7]): < 20%
Inhibitory % CYP2D6 (CYP2D6 [8]): 10.13%
Inhibitory % CYP2C8 (CYP2C8 [9]): 11.87%
inhibition at 10 µM (5-HT3): 5.63%
inhibition at 10 µM (CYP2B6 [10]): > 50%
Liver microsomal clearance CLR [11]: CLR = 174.66 μL/min/mg
Inhibitory % CYP3A4 (midazolam) (CYP3A4 [12]): 18.72%
Inhibitory % CYP2C9 (CYP2C9 [13]): 21.2%
Structure (SMILES): CCCCCCCC/C=C\CCCCCCCC(=O)NC(CO)(CO)CO [Compound 13, N-(1,3-dihydroxy-2-(hydroxymethyl)propan-2-yl)]
